We go through 10 compounds from US12331018B2, “Pyrrolidine orexin receptor agonists” (Merck Sharp & Dohme LLC, priority 2019, dated 2025).

The target in this assay is T1, human OX2R (Homo sapiens, UniProt O43614).
T1 construct: expressed in transfected cells; host or cells: CHO (Chinese hamster ovary) cells, grown under G418 selection
T1 sequence (O43614 1-444): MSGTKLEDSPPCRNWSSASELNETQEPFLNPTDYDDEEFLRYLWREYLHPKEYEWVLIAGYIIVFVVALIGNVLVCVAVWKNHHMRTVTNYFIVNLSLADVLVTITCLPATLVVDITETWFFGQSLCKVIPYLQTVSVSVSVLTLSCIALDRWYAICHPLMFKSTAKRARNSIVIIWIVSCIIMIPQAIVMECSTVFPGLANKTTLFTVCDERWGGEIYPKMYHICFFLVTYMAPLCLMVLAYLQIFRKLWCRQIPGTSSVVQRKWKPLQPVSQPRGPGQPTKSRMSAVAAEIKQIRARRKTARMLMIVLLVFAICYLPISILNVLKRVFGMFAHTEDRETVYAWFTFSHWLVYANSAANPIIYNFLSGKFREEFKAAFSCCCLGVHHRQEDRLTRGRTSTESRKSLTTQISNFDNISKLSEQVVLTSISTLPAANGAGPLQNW
Briefly: IPOne (IP-1 accumulation) assay in CHO cells expressing human OX2R. The assay is classed as cell-based. As to conditions: for Emax, % of reference agonist: OX2R, percentage of sample raw value/mean max effect (reference compound at 1 uM with 100% activity). From the text:
The utility of the compounds in accordance with the present invention as orexin receptor OX1R and/or OX2R agonists may be readily determined without undue experimentation by methodology well known in the art. Both the OX1R and/or OX2R G-coupled protein receptors (GPCRs) couple through the Gaq signaling pathway, which ultimately promotes calcium mobilization via inositol triphosphate (IP3) production. The half-life of IP-3 is relatively short, being rapidly metabolized to inositol monophosphate (IP-1), which can be readily detected using a commercially available assay kit (IP-One; Cisbio; cat #621PAPEC) coupled with a cell line expressing the target receptor(s) of interest. The utility of the compounds in accordance with the present invention as orexin receptor OX1R and/or OX2R agonists may be determined utilizing this assay.
In a typical experiment, the OX1 and OX2 receptor agonist activity is determined in accordance with the following general experimental method. Chinese hamster ovary (CHO) cells expressing human OX1R and/or the human OX2R were grown in Iscove's modified DMEM containing glutaMAX™, 1% G418, 100 U/mL penicillin, 100 μg/mL streptomycin and 10% heat-inactivated qualified fetal bovine serum (FBS). The OX2R cells were seeded at 10,000 cells/well/50 μL and the OX1R cells were seeded at 20,000 cells/well/50 μL into 384-well white tissue culture plates (Greiner; cat #781080). All cell/media reagents were from GIBCO-Invitrogen Corp. The seeded cell plate(s) were incubated at 37° C. with 5% CO2 and 85% humidity for 20-24 hours. On the day of the assay, assay-ready compound plates were prepared using an acoustic liquid handler (ECHO; Labcyte), which dispensed sufficient volume of test compound stock (10 mM in DMSO) or 100% DMSO to prepare 10 point, ½-log dilutions in a final volume of 202.5 nL/well in all test wells of a 384-well diamond plate (Labcyte). Following completion of assay-ready plates, importantly, the next three steps were performed with minimal delay: 1) 20 μl of 1× stimulation buffer was added to the compound plate using a Multidrop Combi (small cassette, Thermo Fisher Scientific cat #24073290); 2) culture medium was removed from the cell plate using the Bluewasher plate washer (gentle spin; BlueCatBio); 3) 14 μl of compound/stimulation buffer mixture was added to the cell plate using a Bravo liquid handler (Agilent) prior to incubating cell plates at 37° C. with 5% CO2 and 85% humidity for 1 or 2 hours (OX1R and OX2R, respectively). During this incubation, IP-one detection reagents were prepared (38:1:1 lysis buffer:D2:AB-cryptate reagents). Six μL of mixed detection reagents were added to the cell plate using a Multidrop Combi (small cassette, Thermo Fisher Scientific cat #24073290) and incubated 60 minutes at room temperature in the dark. Fluorescence signal was detected using an Envision plate reader (Perkin Elmer) [LANCE/DELFIA Dual Enh (Em: APC 665; Ex: Cy5 620)].
For each compound, data were fit to a four parameter logistic fit (ActivityBase software) and the EC50 was reported as the inflection point of the resulting curve. Percent effect for each test compound was determined as the percentage of sample raw value/mean max effect, where the mean max effect was derived from the mean raw value of 32 control wells per assay plate (using Orexin A (cat #003-30) at 1 μM for human OX1R and a reference compound at 1 uM with 100% activity previously established by comparison to Orexin A for human OX2R). The intrinsic orexin receptor agonist activity of a compound which may be used in the present invention may be determined by these assays.

The mark [1] stands for this setting: CHO cells expressing human OX2R, IP-One assay, 2 hours incubation, four parameter logistic fit, read-out: OX2R Potency, EC50.

Read-outs that look alike come from different tables or passages of the source.

As for `CCNC(=O)N1CC[C@H](NS(C)(=O)=O)[C@@H]1CO[C@H]1CC[C@@H](c2ccccc2)CC1` (relative stereo) [Example 1, (CIS)-N-ethyl-3-(methylsulfonamido)-2-((((CIS)-4-phenylcyclohexyl)oxy)methyl)pyrrolidine-1-carboxamide], a half-maximal response (EC50) required 12 nM and the “Emax, % of reference agonist” value amounted to 99.6%.

For the compound `COC(=O)N1CC[C@H](NS(C)(=O)=O)[C@@H]1CO[C@H]1CC[C@@H](c2ccccc2)CC1` (relative stereo) [Example 2, methyl (CIS)-3-(methylsulfonamido)-2-((((CIS)-4-phenylcyclohexyl)oxy)-methyl)pyrrolidine-1-carboxylate], the “Emax, % of reference agonist” value came to 96.4%. Moreover, the 50% effective concentration (EC50) under setting [1] was determined as 328 nM.

For the compound `CC(=O)N1CC[C@H](NS(C)(=O)=O)[C@@H]1CO[C@H]1CC[C@@H](c2ccccc2)CC1` (relative stereo) [Example 3, N-((CIS)-1-acetyl-2-((((CIS)-4-phenylcyclohexyl)oxy)methyl)pyrrolidin-3-yl)methanesulfonamide], the “Emax, % of reference agonist” value was 101.3%. Further, the concentration for a half-maximal effect (EC50) under setting [1] is 272 nM.

As to `CCOC(=O)N1CC[C@@H](NS(C)(=O)=O)[C@H]1CO[C@H]1CC[C@@H](c2ccccc2)CC1` (relative stereo) [Example 4, ethyl (CIS)-3-(methylsulfonamido)-2-((((CIS)-4-phenylcyclohexyl)oxy)methyl) pyrrolidine-1-carboxylate], the “Emax, % of reference agonist” value was found to be 98.9%. The 50% effective concentration (EC50) under setting [1] is 252 nM.

Consider `CC(C)OC(=O)N1CC[C@@H](NS(C)(=O)=O)[C@H]1CO[C@H]1CC[C@@H](c2ccccc2)CC1` (relative stereo) [Example 5, isopropyl (CIS)-3-(methylsulfonamido)-2-((((CIS)-4-phenylcyclohexyl)oxy)methyl) pyrrolidine-1-carboxylate], for which the “Emax, % of reference agonist” value amounted to 92.8%. In addition, under setting [1], the half-maximal effective concentration (EC50) was 2630 nM.

With `CS(=O)(=O)N[C@@H]1CCN(C(=O)OCCF)[C@@H]1CO[C@H]1CC[C@@H](c2ccccc2)CC1` (relative stereo) [Example 6, 2-fluoroethyl (CIS)-3-(methylsulfonamido)-2-((((CIS)-4-phenylcyclohexyl)oxy)methyl) pyrrolidine-1-carboxylate], the “Emax, % of reference agonist” value was determined as 98.4%. The half-maximal effective concentration (EC50) under setting [1] came out at 216 nM.

On to `CC(=O)OCC(=O)N1CC[C@H](NS(C)(=O)=O)[C@@H]1CO[C@H]1CC[C@@H](c2ccccc2)CC1` (relative stereo) [Example 7, 2-((CIS)-3-(methylsulfonamido)-2-((((CIS)-4-phenylcyclohexyl)oxy)methyl)pyrrolidin-1-yl)-2-oxoethyl acetate], for which the “Emax, % of reference agonist” value stood at 98.8%. Besides, the EC50 under setting [1] amounted to 361 nM.

For the compound `CS(=O)(=O)N[C@H]1CCN(C(=O)C2CC2)[C@H]1CO[C@H]1CC[C@@H](c2ccccc2)CC1` (relative stereo) [Example 8, N-((CIS)-1-(cyclopropanecarbonyl)-2-((((CIS)-4-phenylcyclohexyl)oxy)methyl)pyrrolidin-3-yl) methanesulfonamide], the “Emax, % of reference agonist” value is 101.6%. Further, the EC50 under setting [1] is 77.9 nM.

For `CC(C)NC(=O)N1CC[C@@H](NS(C)(=O)=O)[C@H]1CO[C@H]1CC[C@@H](c2ccccc2)CC1` (relative stereo) [Example 9, (CIS)-N-isopropyl-3-(methylsulfonamido)-2-((((CIS)-4-phenylcyclohexyl)oxy)methyl) pyrrolidine-1-carboxamide], the “Emax, % of reference agonist” value worked out at 99.2%. For the same compound, under setting [1], the half-maximal effective concentration (EC50) was 36.4 nM.

Take `CS(=O)(=O)N[C@H]1CCN(C(=O)NCC(F)(F)F)[C@H]1CO[C@H]1CC[C@@H](c2ccccc2)CC1` (relative stereo) [Example 10, (CIS)-3-(methylsulfonamido)-2-((((CIS)-4-phenylcyclohexyl)oxy)methyl)-N-(2,2,2-trifluoroethyl)pyrrolidine-1-carboxamide]: the “Emax, % of reference agonist” value was determined as 103.7%. Moreover, the concentration for a half-maximal effect (EC50) under setting [1] amounted to 3.65 nM.

As usually defined, the EC50 is the midpoint of the concentration-response curve.
